Assays:
Type in all cases: cell-based, human
[1] = system: ATM cytoplasmic translocation; test: ATM relocalisation upon DNA DSB, immunofluorescence, U2OS cells
Experimental: FIG. 7: Cytoplasmic accumulation of ATM. (A) Fractionation experiment with separated nuclear extracts (NE) and cytoplasmic extracts (CE). PARP1 and LDH staining served as loading and fractionation controls. Cells were pre-treated with DMSO or MW01 (5 μM) prior to irradiation and cell harvesting at indicated times. NE and CE were subjected to SDS-PAGE/WB procedure. (B) U2OS cells were seeded on cover slips 2 days before treatment. The cells were pre-treated with solvent DMSO alone or with MW01 prior to irradiation, cell fixation and subsequent immunofluorescence staining.
For immunofluorescence staining 0.95×10^5 cells were seeded in 6 well plates onto autoclaved cover slips. Cellular confluency dictated to beginning of the experiment (2-3 days from seeding). After conduction of experiments cells were washed with PBS and fixed with 4% PFA/double-distilled H2O (ddH2O) for 10 min at RT. Following two additional washing steps cells were incubated with a solution containing 0.12% glycine/0.2% saponin in PBS for 10 min and then blocked with a solution containing 10% FCS/0.2% saponin in PBS for 1 h. Primary antibody incubation was performed overnight at 4° C. (1:500 diluted in 0.2% saponin in PBS). The next day, cover slips were washed five times with a solution containing 0.2% saponin in PBS. […]

[2] = system: HEK293 cells; test: Percentage of viable cells, annexin V / propidium-iodide exclusion, flow cytometry, HEK293 cells
Experimental: FIG. 16: (A) U2OS cells were pre-treated with DMSO or MW01 and irradiated. Cells were lysed 8 h post γ-IR and were used for western blotting and immunochemical staining. (B) HEK293 cells were pre-treated with DMSO or MW01 and irradiated. After 48 h cells were fixed and stained with crystal violet. Dissolved crystal violet was used for absorbance measurement in a visible light spectrophotometer at a wavelength of 595 nm. (C) HEK293 cells were pre-treated with DMSO or MW01 and irradiated. The percentage of viable cells within the population was calculated by exclusion of annexin V and propidium-iodide positive cells measured by flow cytometry. (D) MEF cells were pre-treated with DMSO or MW01 and irradiated. Cells were used for annexin V staining 24 h and 48 after γ-IR. Percentage of annexin V positive cell population was analysed using a flow cytometer. (E) Experiment done as shown in (D) but with HT1080 cells processed 8 h after irradiation. Statistical significance was calculated using students t-test.
Cells were washed with ice-cold PBS and detached from growing dishes using Trypsin/EDTA solution. Detached cells were centrifuged at 300×g for 5 min. Detection of early apoptotic cells was performed by staining with annexin V-FITC antibody according to manufacturer's instructions (eBioscience Annexin V-FITC Apoptosis detection Kit). […]

[3] = system: genotoxic stress-initiated NF-κB signaling cascade; test: Time course of IκBα, p65, IKK and TAK1 phosphorylation after γ-IR, WB, U2OS cells
From the text: FIG. 6: (A) U2OS cells were pre-treated with DMSO or MW01 and irradiated. Stimulation of cell with IL-1β served as a positive control for IκBα and p65 phosphorylation. Cells were lysed at indicated time points and used for WB analyses. (B,C) Similar experimental setup as in (A). (D) Experiment as in (A-C), but with other time points analysed and performed with HepG2 cells. PARP1 and LDH serve as loading controls.

[4] = system: IL-1β-induced NF-κB activation; test: IL-1β-stimulated NF-κB activation, SDS-PAGE/WB and EMSA, U2OS cells
Experimental: FIG. 5: (A) U2OS cell were pre-treated with MW01 followed by stimulation with IL-1p. Cell lysates were used for SDS-PAGE/WB and EMSA. (B) Cells pre-treated with increasing concentrations MW01 were stimulated with IL-1p. Cell lysates were used for SDS-PAGE/WB and stained with indicated antibodies.
For the activation of the canonical NF-κB pathway cells were treated with recombinant human TNFα (10 ng/ml) or IL-1β (10 ng/ml) for 20-30 min at 37° C.

[5] = system: DNA repair mechanisms; test: γH2AX foci per nucleus, immunofluorescence, U2OS cells; conditions: 5 μM, untreated (non-irradiated) cells, 5 hours
Experimental: FIG. 17: U2OS cells grown on coverslips were incubated 30 min with DMSO or MW01 (5 μM). Then, cells were γ-irradiated (5 Gy) or mock irradiated (mock IR). After 5 hours, cells were fixed and subjected to immunofluorescence staining procedure. DNA damage-indicating γH2AX foci and nuclei n≥480 nuclei per condition) were counted for the calculation of average foci per nucleus. Significance was calculated using student's t-test.
U2OS cells were grown on coverslips and incubated 30 min with DMSO or MW01 (5 μM). Then, cells were γ-irradiated (5 Gy) or mock irradiated (mock IR). After 5 hours, cells were fixed and subjected to immunofluorescence staining procedure. DNA damage-indicating γH2AX foci and nuclei (n≥480 nuclei per condition) were counted for the calculation of average foci per nucleus. Significance was calculated using student's t-test.

[6] = system: U2OS cells; test: qRT-PCR of anti- and pro-apoptotic genes after γ-IR, U2OS cells
Experimental: FIG. 15: (A), (B) U2OS cells were pre-treated with DMSO or MW01 and irradiated. After 8 h mRNA was isolated and reversely transcribed into cDNA. The obtained cDNA was used to perform qRT-PCR using gene specific exon-exon-spanning primers for mRNA of anti-apoptotic (A) and pro-apoptotic genes (B).
To quantitate specific mRNA (messenger RNA) species in samples RNA was isolated, RNA concentration was measured and mRNA was transcribed into cDNA. The amount of mRNA transcripts of certain genes within a sample was quantified by employing gene specific primers and using a C-1000 Thermal cycler (Biorad). The expression of genes of interest was normalised against two or three reference genes (HRPT1, RPL_13a and B2M) using the CFX manager software. The fold induction of mRNA was calculated over untreated sample levels by the ΔΔ-Ct method.

COc1ccc2c(c1OC)c(=O)n1c3ccc(O)cc3c3ccnc2c31 [MW01, 12-hydroxy-6,7-dimethoxy-8H-benzo[c]indolo[3,2,1-ij][1,5]naphthyridin-8-one]
ATM localisation after irradiation (IF) [1]: predominantly localized within the nucleus | less viable cells after irradiation ([2]; HEK293, after irradiation): ~17% | percentage of viable cells compared to the DMSO control ([2]; HEK293, non-irradiated): slightly reduced | TAK1 phosphorylation ([3]; 45 and 60 min following irradiation): strongly inhibited | IκBα phosphorylation ([3]; 45 min and 60 min after γ-IR): complete inhibition | p65 S536 phosphorylation ([3]; 45 min and 60 min after γ-IR): inhibited | IKK phosphorylation ([3]; 90 min after irradiation): abolished | p65 S536 phosphorylation following IL-1β stimulation ([4]; U2OS): neither inhibited p65 S536 phosphorylation | IKK activation and p65 S536 phosphorylation after IL-1β at high concentrations ([4]; up to 100 μM): no effect on the phosphorylation state of IKK or p65 | γH2AX foci per cell [5]: significant increase | BIRC3 mRNA ([6]; 8 h after γ-IR): down-regulated | expression of BCL2L1 mRNA ([6]; 8 h after γ-IR): fully inhibited | expression of XIAP mRNA ([6]; 8 h after γ-IR): moderately inhibited | BBC3 mRNA expression, induction ([6]; after irradiation): 3 fold | PMAIP1 mRNA expression ([6]; after irradiation): further elevated | mRNA expression of TNFAIP3 ([6]; after γ-IR, in comparison to irradiated controls): abolished mRNA expression | mRNA expression of PMAIP1 ([6]; pre-treatment without irradiation): already increased | BBC3 mRNA expression ([6]; without irradiation): not influenced | mRNA expression of BIRC3, XIAP or BCL2L1 in comparison to the DMSO control ([6]; without irradiation): did not significantly change
